Measured values from the NIST ThermoML archive (doi:10.1021/je060200b).

What was measured:
[1] = 101 kPa, Liquid; for mass density: Vibrating tube method; for speed of sound: Pulse-echo method
[2] = molar heat capacity at constant pressure; details: 101 kPa, Liquid
[3] = molar heat capacity at constant pressure; xn = mol fraction of the nth substance listed; details: 101 kPa, Liquid, x2 = 0
[4] = xn = mol fraction of the nth substance listed; details: 101 kPa, Liquid, x2 = 0; for mass density: Vibrating tube method; for speed of sound: Pulse-echo method

CCCCCCC [heptane]
Details | mass density [kg/m3] | molar heat capacity at constant pressure [J/K/mol] | speed of sound [m/s]
[1], 292.7 K | 684.18 | – | –
[1], 292.84 K | – | – | 1153.7
[1], 297.98 K | 679.88 | – | –
[1], 298.84 K | – | – | 1127.7
[1], 302.94 K | 675.72 | – | –
[1], 303.8 K | – | – | 1106.4
[1], 308.06 K | 671.47 | – | –
[1], 308.78 K | – | – | 1085.1
[1], 314.1 K | 666.39 | – | –
[1], 314.87 K | – | – | 1059.1
[2], 293.15 K | – | 222.87 | –
[2], 294.15 K | – | 223.23 | –
[2], 295.15 K | – | 223.6 | –
[2], 296.15 K | – | 223.97 | –
[2], 297.15 K | – | 224.35 | –
[2], 298.15 K | – | 224.72 | –
[2], 299.15 K | – | 225.1 | –
[2], 300.15 K | – | 225.47 | –
[2], 301.15 K | – | 225.87 | –
[2], 302.15 K | – | 226.22 | –
[2], 303.15 K | – | 226.61 | –
[2], 304.15 K | – | 227 | –
[2], 305.15 K | – | 227.4 | –
[2], 306.15 K | – | 227.75 | –
[2], 307.15 K | – | 228.14 | –
[2], 308.15 K | – | 228.54 | –
[2], 309.15 K | – | 228.95 | –
[2], 310.15 K | – | 229.3 | –
[2], 311.15 K | – | 229.71 | –
[2], 312.15 K | – | 230.11 | –
[2], 313.15 K | – | 230.51 | –

CCCCCCC [heptane] + BrCCCCCBr
Details | mass density [kg/m3] | molar heat capacity at constant pressure [J/K/mol] | speed of sound [m/s]
[3], 293.15 K | – | 222.87 | –
[3], 294.15 K | – | 223.23 | –
[3], 295.15 K | – | 223.6 | –
[3], 296.15 K | – | 223.97 | –
[3], 297.15 K | – | 224.35 | –
[3], 298.15 K | – | 224.72 | –
[3], 299.15 K | – | 225.1 | –
[3], 300.15 K | – | 225.47 | –
[3], 301.15 K | – | 225.87 | –
[3], 302.15 K | – | 226.22 | –
[3], 303.15 K | – | 226.61 | –
[3], 304.15 K | – | 227 | –
[3], 305.15 K | – | 227.4 | –
[3], 306.15 K | – | 227.75 | –
[3], 307.15 K | – | 228.14 | –
[3], 308.15 K | – | 228.54 | –
[3], 309.15 K | – | 228.95 | –
[3], 310.15 K | – | 229.3 | –
[3], 311.15 K | – | 229.71 | –
[3], 312.15 K | – | 230.11 | –
[3], 313.15 K | – | 230.51 | –
[4], 292.7 K | 684.18 | – | –
[4], 292.84 K | – | – | 1153.7
[4], 297.98 K | 679.88 | – | –
[4], 298.84 K | – | – | 1127.7
[4], 302.94 K | 675.72 | – | –
[4], 303.8 K | – | – | 1106.4
[4], 308.06 K | 671.47 | – | –
[4], 308.78 K | – | – | 1085.1
[4], 314.1 K | 666.39 | – | –
[4], 314.87 K | – | – | 1059.1

BrCCCCCBr [1,5-dibromopentane]
Details | mass density [kg/m3] | molar heat capacity at constant pressure [J/K/mol] | speed of sound [m/s]
[1], 292.38 K | – | – | 1149.5
[1], 292.52 K | 1699.54 | – | –
[1], 298.05 K | 1691.87 | – | –
[1], 298.37 K | – | – | 1133
[1], 303.06 K | 1684.89 | – | –
[1], 303.39 K | – | – | 1119.3
[1], 308.08 K | 1678.03 | – | –
[1], 308.38 K | – | – | 1105.8
[1], 314.36 K | – | – | 1089.7
[1], 314.66 K | 1668.75 | – | –
[2], 293.15 K | – | 219.76 | –
[2], 294.15 K | – | 219.98 | –
[2], 295.15 K | – | 220.19 | –
[2], 296.15 K | – | 220.41 | –
[2], 297.15 K | – | 220.66 | –
[2], 298.15 K | – | 220.84 | –
[2], 299.15 K | – | 221.1 | –
[2], 300.15 K | – | 221.28 | –
[2], 301.15 K | – | 221.49 | –
[2], 302.15 K | – | 221.73 | –
[2], 303.15 K | – | 221.95 | –
[2], 304.15 K | – | 222.17 | –
[2], 305.15 K | – | 222.41 | –
[2], 306.15 K | – | 222.63 | –
[2], 307.15 K | – | 222.85 | –
[2], 308.15 K | – | 223.09 | –
[2], 309.15 K | – | 223.31 | –
[2], 310.15 K | – | 223.56 | –
[2], 311.15 K | – | 223.78 | –
[2], 312.15 K | – | 224.03 | –
[2], 313.15 K | – | 224.26 | –
